Assay results reported in ChEMBL document CHEMBL1201862, “PubChem BioAssay data set” (2004).
Values belong to the compound of their own block, whether it stands above or below them. Calls of active or inactive are those of the source.

Experiments:
Assay type in all cases: functional
Aurora kinase A = Aurora kinase A (Homo sapiens, UniProt O14965);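 note: value from the Navigating the Kinome kinase panel profiling, panel entry STK6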
[1] = target: Serine/threonine-protein kinase Chk1 (Homo sapiens, UniProt O14757);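 note: measured as one member of a kinome-wide kinase profiling panel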
[2] = target: Neuropeptides B/W receptor type 1 (Homo sapiens, UniProt P48145); test: GPR7 antagonist potency, late-stage follow-up, cell-based, fluorescence, dose response, set 5 (AID 588566)
[3] = target: Melanin-concentrating hormone receptor 1 (Homo sapiens, UniProt Q99705); test: Late-stage fluorescence-based counterscreen for antagonists of the G-protein coupled receptor 7 (GPR7): cell-based dose response assay to identify antagonists of the melanin-concentrating hormone receptor 1 (MCHR1) Set 5.
[4] = target: T1, Protein disulfide-isomerase (Homo sapiens, UniProt P07237); test: PDI inhibitors, insulin aggregation turbidity, dose response, biochemical, absorbance, cherry-picked samples (AID 602350)
[5] = target: T1, Protein disulfide-isomerase; test: PDI inhibitors, insulin turbidity readout, dose response, biochemical, absorbance, cherry-picked samples, set 2 (AID 624274)
[6] = target: Serine/threonine-protein kinase pim-1 (Homo sapiens, UniProt P11309)
[7] = target: Cell division cycle 7-related protein kinase (Homo sapiens, UniProt O00311);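 note: value obtained from a kinome-wide kinase panel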
[8] = target: Homeodomain-interacting protein kinase 2 (Homo sapiens, UniProt Q9H2X6);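 note: measured within a kinome-wide kinase profiling panel, HIPK2 being one panel member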
[9] = target: MAP kinase-interacting serine/threonine-protein kinase 2 (Homo sapiens, UniProt Q9HBH9)
[10] = target: Interleukin-1 receptor-associated kinase 4 (Homo sapiens, UniProt Q9NWZ3)
[11] = target: Glycogen synthase kinase-3 beta (Homo sapiens, UniProt P49841);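 note: value comes from a broad kinome profiling panel, with GSK3B as the panel member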
[12] = target: cAMP-dependent protein kinase catalytic subunit alpha (Homo sapiens, UniProt P17612)
[13] = target: Dual specificity protein kinase CLK4 (Homo sapiens, UniProt Q9HAZ1)
[14] = target: Mitogen-activated protein kinase kinase kinase kinase 4 (Homo sapiens, UniProt O95819)
Mitogen-activated protein kinase kinase kinase kinase 4, sequence (O95819 whole entry): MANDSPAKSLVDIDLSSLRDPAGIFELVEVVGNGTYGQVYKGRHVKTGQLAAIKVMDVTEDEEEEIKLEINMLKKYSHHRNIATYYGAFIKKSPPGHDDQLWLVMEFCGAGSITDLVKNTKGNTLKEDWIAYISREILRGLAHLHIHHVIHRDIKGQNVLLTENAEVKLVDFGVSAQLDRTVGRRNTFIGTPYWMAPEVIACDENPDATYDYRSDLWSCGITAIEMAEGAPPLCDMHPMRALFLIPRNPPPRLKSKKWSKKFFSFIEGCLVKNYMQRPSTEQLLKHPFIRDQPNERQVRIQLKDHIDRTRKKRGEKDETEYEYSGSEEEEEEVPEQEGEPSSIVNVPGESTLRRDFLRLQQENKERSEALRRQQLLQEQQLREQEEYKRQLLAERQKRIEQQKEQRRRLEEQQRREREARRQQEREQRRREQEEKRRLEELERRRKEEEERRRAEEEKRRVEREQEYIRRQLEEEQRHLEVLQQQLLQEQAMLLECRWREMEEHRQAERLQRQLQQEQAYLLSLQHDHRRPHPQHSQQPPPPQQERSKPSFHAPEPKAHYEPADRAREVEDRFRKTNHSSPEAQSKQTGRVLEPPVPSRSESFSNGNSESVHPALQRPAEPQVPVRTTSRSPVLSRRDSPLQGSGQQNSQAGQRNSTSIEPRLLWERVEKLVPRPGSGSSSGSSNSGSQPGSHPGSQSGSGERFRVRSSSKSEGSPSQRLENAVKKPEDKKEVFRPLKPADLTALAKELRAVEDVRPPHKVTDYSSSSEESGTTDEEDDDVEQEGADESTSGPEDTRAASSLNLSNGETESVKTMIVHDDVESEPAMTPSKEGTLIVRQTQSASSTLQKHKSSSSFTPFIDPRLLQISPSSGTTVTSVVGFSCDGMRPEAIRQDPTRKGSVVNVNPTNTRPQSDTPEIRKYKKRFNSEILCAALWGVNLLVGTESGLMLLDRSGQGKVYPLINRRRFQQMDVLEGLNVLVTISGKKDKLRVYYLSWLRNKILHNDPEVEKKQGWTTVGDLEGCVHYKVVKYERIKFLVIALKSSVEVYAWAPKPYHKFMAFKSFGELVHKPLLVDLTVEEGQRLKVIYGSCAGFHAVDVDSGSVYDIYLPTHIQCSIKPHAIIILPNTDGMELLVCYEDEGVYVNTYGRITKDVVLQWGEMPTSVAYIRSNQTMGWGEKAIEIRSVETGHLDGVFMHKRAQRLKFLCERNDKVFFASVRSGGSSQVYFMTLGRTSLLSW

T1 sequence (P07237 whole entry): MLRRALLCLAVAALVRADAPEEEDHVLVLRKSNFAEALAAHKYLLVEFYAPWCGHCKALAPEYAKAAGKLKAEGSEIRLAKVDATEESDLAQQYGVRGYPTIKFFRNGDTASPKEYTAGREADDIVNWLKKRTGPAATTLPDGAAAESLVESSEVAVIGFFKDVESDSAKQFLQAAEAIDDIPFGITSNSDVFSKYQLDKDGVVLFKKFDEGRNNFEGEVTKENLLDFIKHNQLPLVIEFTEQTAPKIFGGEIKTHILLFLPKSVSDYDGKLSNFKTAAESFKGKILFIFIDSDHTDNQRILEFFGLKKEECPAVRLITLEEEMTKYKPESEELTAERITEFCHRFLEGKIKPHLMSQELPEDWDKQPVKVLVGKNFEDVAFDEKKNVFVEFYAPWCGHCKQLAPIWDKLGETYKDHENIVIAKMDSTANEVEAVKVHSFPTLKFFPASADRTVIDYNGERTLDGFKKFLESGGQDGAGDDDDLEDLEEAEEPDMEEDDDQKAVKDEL
Serine/threonine-protein kinase pim-1, sequence (P11309 whole entry): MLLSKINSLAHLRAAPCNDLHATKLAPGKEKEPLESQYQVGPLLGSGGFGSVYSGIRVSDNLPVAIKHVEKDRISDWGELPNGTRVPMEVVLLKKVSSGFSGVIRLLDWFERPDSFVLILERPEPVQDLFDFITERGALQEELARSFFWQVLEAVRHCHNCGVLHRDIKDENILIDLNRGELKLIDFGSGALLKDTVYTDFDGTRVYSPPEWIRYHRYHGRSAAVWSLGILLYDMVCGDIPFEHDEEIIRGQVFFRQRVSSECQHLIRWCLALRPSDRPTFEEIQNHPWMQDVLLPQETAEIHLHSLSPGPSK
Glycogen synthase kinase-3 beta, sequence (P49841 whole entry): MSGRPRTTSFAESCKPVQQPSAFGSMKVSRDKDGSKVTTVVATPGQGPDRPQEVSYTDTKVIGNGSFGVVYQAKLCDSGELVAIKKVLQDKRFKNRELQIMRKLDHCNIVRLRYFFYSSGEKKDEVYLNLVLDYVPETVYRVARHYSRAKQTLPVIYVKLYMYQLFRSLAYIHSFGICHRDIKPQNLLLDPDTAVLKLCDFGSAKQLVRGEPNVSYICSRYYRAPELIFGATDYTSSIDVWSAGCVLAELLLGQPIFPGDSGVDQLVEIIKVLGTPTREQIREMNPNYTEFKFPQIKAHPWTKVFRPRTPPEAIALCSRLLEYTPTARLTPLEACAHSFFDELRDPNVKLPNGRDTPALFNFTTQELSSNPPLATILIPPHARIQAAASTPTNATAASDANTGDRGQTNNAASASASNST
Aurora kinase A, sequence (O14965 whole entry): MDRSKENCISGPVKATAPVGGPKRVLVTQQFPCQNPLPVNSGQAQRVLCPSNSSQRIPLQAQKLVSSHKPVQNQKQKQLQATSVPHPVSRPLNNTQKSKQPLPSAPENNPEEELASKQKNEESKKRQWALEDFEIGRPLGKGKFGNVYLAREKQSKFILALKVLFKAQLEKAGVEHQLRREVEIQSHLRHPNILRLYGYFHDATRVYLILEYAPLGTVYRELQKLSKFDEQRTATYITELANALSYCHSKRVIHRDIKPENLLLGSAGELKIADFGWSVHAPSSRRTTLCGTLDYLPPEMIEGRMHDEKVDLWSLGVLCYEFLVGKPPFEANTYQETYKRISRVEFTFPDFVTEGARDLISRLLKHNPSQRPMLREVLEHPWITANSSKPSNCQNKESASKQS
Interleukin-1 receptor-associated kinase 4, sequence (Q9NWZ3 whole entry): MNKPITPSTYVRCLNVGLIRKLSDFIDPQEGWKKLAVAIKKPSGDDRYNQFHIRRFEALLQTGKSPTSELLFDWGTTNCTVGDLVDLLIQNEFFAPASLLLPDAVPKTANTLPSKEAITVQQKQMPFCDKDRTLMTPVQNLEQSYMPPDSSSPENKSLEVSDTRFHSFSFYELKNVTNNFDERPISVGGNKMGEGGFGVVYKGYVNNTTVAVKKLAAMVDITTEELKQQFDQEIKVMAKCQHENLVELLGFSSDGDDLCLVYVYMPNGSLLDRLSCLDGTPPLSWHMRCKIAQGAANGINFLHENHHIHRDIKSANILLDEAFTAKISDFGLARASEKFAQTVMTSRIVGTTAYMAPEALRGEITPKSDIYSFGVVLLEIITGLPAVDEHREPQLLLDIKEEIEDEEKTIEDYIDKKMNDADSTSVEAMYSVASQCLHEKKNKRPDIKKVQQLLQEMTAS
MAP kinase-interacting serine/threonine-protein kinase 2, sequence (Q9HBH9 whole entry): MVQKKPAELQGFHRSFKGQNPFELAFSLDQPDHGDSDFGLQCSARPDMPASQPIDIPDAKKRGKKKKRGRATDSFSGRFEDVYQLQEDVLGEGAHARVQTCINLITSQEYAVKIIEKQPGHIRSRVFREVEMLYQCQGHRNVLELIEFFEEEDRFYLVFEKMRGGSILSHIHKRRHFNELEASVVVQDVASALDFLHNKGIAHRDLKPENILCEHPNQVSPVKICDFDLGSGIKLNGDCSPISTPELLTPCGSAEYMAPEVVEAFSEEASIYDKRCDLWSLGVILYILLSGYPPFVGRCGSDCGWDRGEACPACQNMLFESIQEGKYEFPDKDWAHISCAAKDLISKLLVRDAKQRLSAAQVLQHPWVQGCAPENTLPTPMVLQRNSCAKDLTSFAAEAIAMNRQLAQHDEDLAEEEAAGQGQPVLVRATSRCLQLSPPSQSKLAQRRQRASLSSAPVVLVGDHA
Homeodomain-interacting protein kinase 2, sequence (Q9H2X6 whole entry): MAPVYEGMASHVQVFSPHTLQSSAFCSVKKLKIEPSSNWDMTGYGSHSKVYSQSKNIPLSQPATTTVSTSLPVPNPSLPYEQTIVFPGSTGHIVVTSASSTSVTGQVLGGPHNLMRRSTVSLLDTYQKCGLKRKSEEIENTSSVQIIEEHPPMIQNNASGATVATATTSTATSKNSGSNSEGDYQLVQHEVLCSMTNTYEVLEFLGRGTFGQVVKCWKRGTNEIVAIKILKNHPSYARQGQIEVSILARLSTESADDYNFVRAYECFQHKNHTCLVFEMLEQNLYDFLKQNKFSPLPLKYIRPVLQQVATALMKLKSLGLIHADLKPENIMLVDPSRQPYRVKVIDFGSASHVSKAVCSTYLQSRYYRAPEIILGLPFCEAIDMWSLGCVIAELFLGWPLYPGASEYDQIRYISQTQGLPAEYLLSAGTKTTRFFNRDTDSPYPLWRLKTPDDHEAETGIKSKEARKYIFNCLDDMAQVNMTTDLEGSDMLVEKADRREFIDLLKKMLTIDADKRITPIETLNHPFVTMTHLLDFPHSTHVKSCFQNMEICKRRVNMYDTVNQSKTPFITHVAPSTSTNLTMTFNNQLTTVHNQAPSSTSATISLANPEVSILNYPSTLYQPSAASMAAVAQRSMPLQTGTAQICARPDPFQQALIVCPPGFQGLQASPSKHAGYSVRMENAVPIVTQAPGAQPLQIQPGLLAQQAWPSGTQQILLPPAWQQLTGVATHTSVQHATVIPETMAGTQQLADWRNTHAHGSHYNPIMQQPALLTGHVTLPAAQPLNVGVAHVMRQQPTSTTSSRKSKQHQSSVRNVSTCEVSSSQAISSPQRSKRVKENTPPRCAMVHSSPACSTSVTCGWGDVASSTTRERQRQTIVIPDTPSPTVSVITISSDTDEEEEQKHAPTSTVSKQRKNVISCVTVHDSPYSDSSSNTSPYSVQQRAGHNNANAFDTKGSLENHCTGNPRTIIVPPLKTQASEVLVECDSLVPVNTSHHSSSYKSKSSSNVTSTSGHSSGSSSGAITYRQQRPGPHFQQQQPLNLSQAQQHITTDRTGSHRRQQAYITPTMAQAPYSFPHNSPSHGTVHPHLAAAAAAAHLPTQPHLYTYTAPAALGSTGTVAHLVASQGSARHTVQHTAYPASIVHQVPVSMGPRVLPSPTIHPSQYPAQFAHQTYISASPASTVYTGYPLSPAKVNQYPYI

Ki (Aurora kinase A): 12600 nM (active)
Ki [1]: 5010 nM (active)
Structure (SMILES): CN(C)c1ncnc2[nH]ncc12

IC50 [2]: > 20000 nM (inactive)
IC50 [3]: > 20000 nM (inactive)
Structure (SMILES): O=c1c(Oc2ccc3ccccc3c2)c(Cl)cnn1Cc1cccc2ccccc12

AC50 [4]: < 9 nM (active)
AC50 [5]: 9 nM (active)
Structure (SMILES): O=C1NC(Cc2ccc(O)cc2)c2nc3ccccc3c(=O)n2-c2ncccc21 (stereo not given)

Ki [6]: 3980 nM (active)
Ki [7]: 31.6 nM (active)
Ki [8]: 2000 nM (active)
Ki [9]: 398 nM (active)
Ki [10]: > 10000 nM (inactive)
Ki [11]: 7.94 nM (active)
Ki [12]: 631 nM (active)
Ki [13]: 25.1 nM (active)
Ki [14]: 1000 nM (active)
Structure (SMILES): Nc1n[nH]c2ccc(-c3nnn(Cc4ccccc4)c3C3CC3)cc12
